Key:
PDCD1 = test: NGS editing of PDCD1 by dgRNA in HEK cells stably expressing Cas9; assay type: cell-based, human; conditions: at least 3 experiments;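 note: dgRNA lipofected into Cas9-expressing HEK cells, lysed after 24 h, target amplicon sequenced, editing = reads carrying insertions or deletions as percent of all reads including wild type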
[1] = tested on: potential off-target genomic sites; test: Off-target editing assessment by oligo insertion assay in Cas9-expressing HEK293 cells; assay type: cell-based, human; conditions: dual guide RNA, FIG. 63, 64
Excerpt: A total of 34 guideRNAs (dual guide RNAs comprising the indicated targeting domain, modified or unmodified, as indicated) targeting B2M (5), TRAC (9), TRBC2 (2), PDCD1 (8), FKBP1A (5), or CIITA (5) were screened in the Cas9-expressing HEK293 cells described above in Example 1, and the results are plotted in FIG. 63 and FIG. 64.

FKBP1A = test: S6 phosphorylation by flow cytometry with or without RAD001 after FKBP1A editing; assay type: cell-based, human; conditions: primary T cells; 2.5 nM RAD001 3 hours; FIG. 54
Protocol: After thawing, isolated human T cells were activated with CD3/CD28 beads for 3 days at a bead to cell ratio of 3:1. Cells were then electroporated with RNP containing dual guide RNA molecules (as indicated, as described above in these examples), and Cas9 protein using the Neon instrument with the 100 ul tip kit. RNPs were prepared in the following manner. crRNA and trRNA (10 ul of each at 100 uM) were heated in separate tubes to 95 degrees C. for two minutes and then cooled for 5 minutes at room temperature. […]
After electroporation, cells were then transferred into a 6-well plate with 2 ml of T cell media with beads at a 3:1 bead to cell ratio. […] The phosphorylation of S6 was detected by flow cytometry, and was used as an indication of immunosuppressing by RAD001. […] Cells were then washed twice with PBS and analyzed by flow cytometry on the Becton Dickenson LSR Fortessa using FloJo-V10 software.
After electroporation cells were treated with 2.5 nM RAD001 (upper panel) or left untreated (lower panel) and the impact on mTOR pathway inhibition was evaluated by analyzing S6 phosphorylation (pS6) by flow cytometry. […] Positive staining for pS6 (shown in the gating trace) was determined by gating above the fluorescence level seen in a control stained with isotype antibody (not shown). Quantitation of S6 phosphorylation from the flow cytometry data is shown in the graph in the lower panel. […]

CD3E = test: NGS editing and frameshift edit of CD3E by dgRNA in HEK-293(Cas9) cells; assay type: cell-based, human; conditions: dgRNA to CD3E in HEK-293(Cas9) cells
Excerpt: Transfection of Cas9GFP-expressing HEK293 cells (HEK-293_Cas9GFP) was used for primary screening of target specific crRNAs. In this example, target specific crRNAs were designed and selected for primary screening using defined criteria including in silico off-target detection, e.g., as described herein. Selected crRNAs were chemically synthesized and delivered in a 96 well format. HEK-293-Cas9GFP cells were transfected with target crRNAs comprising a flagpole region of SEQ ID NO: 6607 in a 1:1 ratio with stock trRNA of SEQ ID NO: 6660. The transfection was mediated using lipofection technology according to manufacturer's protocol (DharmaFECT Duo, GE LifeSciences; or RNAiMax, LifeTechnologies). Transfected cells were lysed 24 h following lipofection and editing (e.g., cleavage) was detected within lysates with the T7E1 assay and/or next generation sequencing (NGS; below).
PCR primers were first designed around the target site, and the genomic area of interest PCR amplified. Additional PCR was performed according to manufacturer's protocols (Illumina) to add the necessary chemistry for sequencing. The amplicons were then sequenced on an Illumina MiSeq instrument. The reads were then aligned to the human reference genome (e.g., hg38) after eliminating those having low quality scores. From the resulting files containing the reads mapped to the reference genome (BAM files), reads which overlap the target region of interest were selected and the number of wild type reads versus the number of reads which contain an insertion or deletion was calculated. The editing percentage was then defined as the total number of reads with insertions or deletions over the total number of reads, including wild type. To determine the pattern of insertions and/or deletions that resulted from the edit, the aligned reads with indels were selected and the number of a reads with a given indel were summed.
dgRNA molecules comprising the indicated targeting domain were chemically synthesized, and editing assessed in HEK-293 cells by NGS as described in Example 1. […] Several gRNA molecules were able to edit more than 50% of the cells, including producing a frameshift mutation in more than 50% of the cells.

CD3 delta and CD3 gamma = test: Loss of surface CD3 by flow cytometry in primary human CD3+ T cells after CD3 delta / CD3 gamma RNP; assay type: cell-based; conditions: day 7 post-electroporation; anti-CD3 OKT3
Protocol: Editing of CRISPR systems containing dgRNA molecules comprising targeting domains to sequences of CD3 delta and CD3 gamma were tested for editing in primary CD3+ T cells (gRNA/Cas9 RNP delivered by electroporation) according to the methods described herein. Surface expression of CD3 after editing was assayed by flow cytometry. Briefly, edited CD3+ cells were stained with antibodies against CD3 (OKT3, BioLegend) at day 7 post-electroporation. Expression of CD3 in live cells (identified using 7AAD exclusion) relative to the un-edited controls was used to determine frequency of RNP editing. The results are reported in FIG. 65 and FIG. 66, which include flow cytometry data showing the % editing in primary human CD3+ T cells as measured by loss of surface expression of CD3.

| Substance | Avg. % Edit (any indel) (CD3E) [%] | Avg. Frameshift % (CD3E) [%] | other results |
| --- | --- | --- | --- |
| CR000902: dgRNA targeting domain to PDCD1 (guide GCCCACGACACCAACCACCA; targeting domain within dual guide RNA, chemistry not given here, further chemistry not given here; listed as Homo sapiens) |  |  | HEK (NGS) % Editing Mean (PDCD1): 72%; off-target editing in oligo insertion assay, in words [1]: no off-target editing was detected |
| CR002122: dgRNA targeting domain to FKBP1A (guide GUUCUUUUCACAGAUGAGUG; targeting domain within dual guide RNA, chemistry not given here, further chemistry not given here; listed as Homo sapiens) |  |  | S6 phosphorylation under RAD001, in words (FKBP1A): refractory to the inhibitory effects of the rapalog RAD001 |
| CR002230 (guide AGGCCUCUCUACUUCCUGUG; targeting domain within dual guide RNA, chemistry not given here, further chemistry not given here; listed as Homo sapiens) | 20.64 | 20.10 |  |
| CR002231 (guide GGCCUCUCUACUUCCUGUGU; targeting domain within dual guide RNA, chemistry not given here, further chemistry not given here; listed as Homo sapiens) | 13.83 | 12.37 |  |
| CR005334: dgRNA targeting domain to CD3 delta or CD3 gamma (guide ACUUCGAUAAUGAACUUGCA; chemistry not given here; listed as Homo sapiens) |  |  | % loss of CD3 (CD3 delta and CD3 gamma): 98% |

From patent US12037583B2, “Compositions and methods for immunooncology” (Novartis AG, priority 2015, dated 2024)
